From patent US8815882B2, “Pyrazole aminopyrimidine derivatives as LRRK2 modulators” (Genentech, Inc., priority 2010, dated 2014)

What follows are molecules tested against T1, LRRK2 (Homo sapiens, UniProt Q5S007, G2019S) (assay: In Vitro LRRK2 Assay (LabChip 3000, fluorescently-labeled peptide substrate, ATP)). Conditions: Table 9; LRRK2 Ki (micromolar); read-out: LRRK2 Ki (KI).
T1 construct: purchased Invitrogen PV4882 (lot 567054A)
Format: biochemical
Method in brief: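 Read-out was LabChip capillary electrophoresis, resolving phospho- from non-phospho-peptide by fluorescence intensity. The kinase reaction combined enzyme, ATP, test compound and labeled peptide (4 μM working dilution) for 2 h in darkness before stop solution. Values were reported as Ki, from a tight-binding model with Et, S and Km, or as IC50 or percent inhibition.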

T1 sequence (Q5S007 whole entry G2019S): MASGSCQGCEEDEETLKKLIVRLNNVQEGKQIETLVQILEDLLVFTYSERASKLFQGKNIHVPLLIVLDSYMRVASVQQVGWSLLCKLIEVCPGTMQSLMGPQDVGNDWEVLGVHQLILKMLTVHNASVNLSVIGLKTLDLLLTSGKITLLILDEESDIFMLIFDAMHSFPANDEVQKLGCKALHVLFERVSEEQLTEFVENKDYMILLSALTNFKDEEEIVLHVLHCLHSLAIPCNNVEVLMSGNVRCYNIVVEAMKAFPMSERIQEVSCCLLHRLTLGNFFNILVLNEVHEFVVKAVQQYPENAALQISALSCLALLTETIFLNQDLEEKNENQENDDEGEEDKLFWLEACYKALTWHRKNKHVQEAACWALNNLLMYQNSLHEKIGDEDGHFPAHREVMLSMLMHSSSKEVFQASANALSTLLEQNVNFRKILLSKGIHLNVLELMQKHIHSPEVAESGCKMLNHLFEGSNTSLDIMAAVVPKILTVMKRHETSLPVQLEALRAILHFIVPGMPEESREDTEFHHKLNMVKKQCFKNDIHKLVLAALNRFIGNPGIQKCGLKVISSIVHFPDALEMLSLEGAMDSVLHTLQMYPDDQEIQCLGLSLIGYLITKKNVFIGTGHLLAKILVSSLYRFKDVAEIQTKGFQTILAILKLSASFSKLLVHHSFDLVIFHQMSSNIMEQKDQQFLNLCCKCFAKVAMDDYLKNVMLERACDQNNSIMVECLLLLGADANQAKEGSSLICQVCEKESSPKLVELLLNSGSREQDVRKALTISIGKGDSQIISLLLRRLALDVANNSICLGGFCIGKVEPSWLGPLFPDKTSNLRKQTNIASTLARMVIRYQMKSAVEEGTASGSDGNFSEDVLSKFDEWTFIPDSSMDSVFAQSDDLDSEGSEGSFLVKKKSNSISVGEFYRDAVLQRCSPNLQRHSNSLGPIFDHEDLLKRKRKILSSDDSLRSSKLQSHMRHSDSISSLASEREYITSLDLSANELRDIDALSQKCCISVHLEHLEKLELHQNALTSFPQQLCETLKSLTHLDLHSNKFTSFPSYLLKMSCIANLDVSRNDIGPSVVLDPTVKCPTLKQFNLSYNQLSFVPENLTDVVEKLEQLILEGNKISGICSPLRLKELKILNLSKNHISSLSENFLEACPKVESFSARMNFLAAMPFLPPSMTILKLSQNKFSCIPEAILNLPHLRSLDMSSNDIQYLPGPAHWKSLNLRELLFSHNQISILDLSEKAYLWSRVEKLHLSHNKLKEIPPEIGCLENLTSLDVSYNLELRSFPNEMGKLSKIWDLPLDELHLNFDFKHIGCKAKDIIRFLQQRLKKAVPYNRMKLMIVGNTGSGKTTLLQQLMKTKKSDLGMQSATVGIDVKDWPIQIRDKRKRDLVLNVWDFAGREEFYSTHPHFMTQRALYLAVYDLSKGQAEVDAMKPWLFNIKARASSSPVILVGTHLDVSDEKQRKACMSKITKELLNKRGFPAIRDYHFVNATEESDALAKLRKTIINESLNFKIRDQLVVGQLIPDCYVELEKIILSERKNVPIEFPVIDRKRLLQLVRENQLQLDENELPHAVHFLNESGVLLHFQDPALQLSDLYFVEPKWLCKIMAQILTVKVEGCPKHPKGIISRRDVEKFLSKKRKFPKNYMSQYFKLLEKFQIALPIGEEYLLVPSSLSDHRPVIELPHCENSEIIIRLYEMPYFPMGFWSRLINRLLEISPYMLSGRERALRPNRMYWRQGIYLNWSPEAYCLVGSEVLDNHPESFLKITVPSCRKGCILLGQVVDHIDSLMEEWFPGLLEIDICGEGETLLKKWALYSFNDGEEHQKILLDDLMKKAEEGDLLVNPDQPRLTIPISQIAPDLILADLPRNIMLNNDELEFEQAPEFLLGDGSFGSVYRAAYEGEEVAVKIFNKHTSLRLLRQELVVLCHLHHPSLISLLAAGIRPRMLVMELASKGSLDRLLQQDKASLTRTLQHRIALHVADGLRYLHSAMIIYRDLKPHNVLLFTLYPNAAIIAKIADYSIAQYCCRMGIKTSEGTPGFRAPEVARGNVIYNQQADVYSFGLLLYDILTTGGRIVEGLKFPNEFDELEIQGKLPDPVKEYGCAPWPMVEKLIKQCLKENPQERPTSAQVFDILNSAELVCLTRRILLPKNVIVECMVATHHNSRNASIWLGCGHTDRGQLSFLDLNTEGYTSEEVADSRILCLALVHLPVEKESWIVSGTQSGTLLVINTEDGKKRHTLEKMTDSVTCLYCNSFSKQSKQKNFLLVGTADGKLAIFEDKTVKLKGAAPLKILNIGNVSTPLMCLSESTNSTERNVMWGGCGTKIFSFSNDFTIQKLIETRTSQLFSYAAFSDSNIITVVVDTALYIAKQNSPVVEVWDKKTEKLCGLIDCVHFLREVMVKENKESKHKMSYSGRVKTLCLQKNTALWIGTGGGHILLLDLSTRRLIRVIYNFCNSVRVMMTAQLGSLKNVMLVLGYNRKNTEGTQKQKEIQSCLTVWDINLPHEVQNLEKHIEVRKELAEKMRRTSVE

Row | SMILES | Ki
1 | CCn1ncc(Nc2ncc(C#N)c(OC)n2)c1C [Example 377, 2-(1-ethyl-5-methyl-1H-pyrazol-4-ylamino)-4-methoxypyrimidine-5-carbonitrile] | 75 nM
2 | CNc1nc(Nc2cnn(C(F)F)c2C)ncc1C#N [Example 384, 2-(1-Difluoromethyl-5-methyl-1H-pyrazol-4-ylamino)-4-methylamino-pyrimidine-5-carbonitrile] | 19.1 nM
3 | Cc1c(Nc2ncc(C#N)c(OCC(F)F)n2)cnn1C [Example 391, 4-(2,2-Difluoro-ethoxy)-2-(1,5-dimethyl-1H-pyrazol-4-ylamino)-pyrimidine-5-carbonitrile] | 211 nM

Same assay, conditions: Table 10; LRRK2 Ki (micromolar); read-out: LRRK2 Ki (KI)

Row | SMILES | Ki
4 | CNc1nc(Nc2cn(C(C)(C)C#N)nc2C2CC2)ncc1C(F)(F)F [Example 419, 2-(3-cyclopropyl-4-(4-(methylamino)-5-(trifluoromethyl)pyrimidin-2-ylamino)-1H-pyrazol-1-yl)-2-methylpropanenitrile] | 1 nM
5 | CNc1nc(Nc2cn([C@@H](C)C(=O)N(C)C)nc2C)ncc1C(F)(F)F [Example 436, (S)-N,N-Dimethyl-2-[3-methyl-4-(4-methylamino-5-trifluoromethyl-pyrimidin-2-ylamino)-pyrazol-1-yl]-propionamide] | 30.3 nM
6 | CNc1nc(Nc2cnn(C(C)(C)C(=O)NC(C)(C)C)c2C)ncc1C(F)(F)F [Example 447, N-tert-Butyl-2-[5-methyl-4-(4-methylamino-5-trifluoromethyl-pyrimidin-2-ylamino)-pyrazol-1-yl]-isobutyramide] | 67 nM

Same assay, conditions: read-out: LRRK2 Ki (KI), Table 7

Row | SMILES | Ki
7 | CNc1nc(Nc2cn(C3COC3)nc2C)ncc1Cl [Example 27, 5-Chloro-N^4-methyl-N^2-(3-methyl-1-(oxetan-3-yl)-1H-pyrazol-4-yl)pyrimidine-2,4-diamine] | 8.8 nM
8 | COc1nc(Nc2cnn(C3CCOCC3)c2C)ncc1Cl [Example 80, (5-Chloro-4-methoxy-pyrimidin-2-yl)-[5-methyl-1-(tetrahydro-pyran-4-yl)-1H-pyrazol-4-yl]-amine] | 66.3 nM
9 | CNc1nc(Nc2ccn(C(C)C)n2)ncc1C(F)(F)F [Example 57, N^2-(1-isopropyl-1H-pyrazol-3-yl)-N4-methyl-5-(trifluoromethyl) pyrimidine-2,4-diamine] | 2.5 nM
10 | COc1nc(Nc2cn(C3COC3)nc2C)ncc1Cl [Example 18, 5-Chloro-4-methoxy-N-(3-methyl-1-(oxetan-3-yl)-1H-pyrazol-4-yl)pyrimidin-2-amine] | 22 nM
11 | COc1nc(Nc2cn(-c3ccccc3)nc2C)ncc1Cl [Example 76, (5-Chloro-4-methoxy-pyrimidin-2-yl)-(3-methyl-1-phenyl-1H-pyrazol-4-yl)-amine] | 2.3 nM

Same assay, conditions: read-out: LRRK2 Ki (KI), Table 8

Row | SMILES | Ki
12 | CNc1nc(Nc2cnn(-c3ccc(Cl)cc3)c2C)ncc1C(F)(F)F [Example 123, N2-(1-(4-chlorophenyl)-5-methyl-1H-pyrazol-4-yl)-N4-methyl-5-(trifluoromethyl) pyrimidine-2,4-diamine] | 0.3 nM
13 | CCNc1nc(Nc2cn(C3COC3)nc2C)ncc1Cl [Example 98, 5-chloro-N4-ethyl-N2-(3-methyl-1-(oxetan-3-yl)-1H-pyrazol-4-yl)pyrimidine-2,4-diamine] | 3.1 nM
14 | CCNc1nc(Nc2cn(S(C)(=O)=O)nc2C)ncc1C(F)(F)F [Example 160, N4-ethyl-N2-(3-methyl-1-(methylsulfonyl)-1H-pyrazol-4-yl)-5-(trifluoromethyl) pyrimidine-2,4-diamine] | 0.3 nM
15 | CNc1nc(Nc2cnn(-c3cc(F)cc(F)c3)c2C)ncc1Br [Example 115, 5-bromo-N2-(1-(3,5-difluorophenyl)-5-methyl-1H-pyrazol-4-yl)-N4-methylpyrimidine-2,4-diamine] | 31 nM
16 | CNc1nc(Nc2cn(-c3ccc(Cl)cc3)nc2C)ncc1C(F)(F)F [Example 129, N2-(1-(4-chlorophenyl)-3-methyl-1H-pyrazol-4-yl)-N4-methyl-5-(trifluoromethyl) pyrimidine-2,4-diamine] | 28 nM
17 | CCNc1nc(Nc2cn(S(=O)(=O)C3CC3)nc2C)ncc1C(F)(F)F [Example 171, N2-(1-(cyclopropyl-sulfonyl)-3-methyl-1H-pyrazol-4-yl)-N4-ethyl-5-(trifluoromethyl) pyrimidine-2,4-diamine] | 0.9 nM
18 | CNc1nc(Nc2cn(-c3ccccc3)nc2C)ncc1Br [Example 109, 5-bromo-N4-methyl-N2-(3-methyl-1-phenyl-1H-pyrazol-4-yl)pyrimidine-2,4-diamine] | 8.4 nM
19 | CNc1nc(Nc2cn(-c3ccc(C(=O)N(C)C)cc3)nc2C)ncc1C(F)(F)F [Example 164, N,N-dimethyl-4-(3-methyl-4-(4-(methylamino)-5-(trifluoromethyl)pyrimidin-2-ylamino)-1H-pyrazol-1-yl)benzamide] | 5.7 nM
20 | CNc1nc(Nc2cn(C3CCN(CC(F)(F)F)CC3)nc2C)ncc1Br [Example 94, 5-bromo-N4-methyl-N2-(3-methyl-1-(1-(2,2,2-trifluoroethyl)piperidin-4-yl)-1H-pyrazol-4-yl)pyrimidine-2,4-diamine] | 13 nM

Further lines, results first:

Row | Ki | SMILES
21 | 2.4 nM | CNc1nc(Nc2cn(C(C)c3ccccn3)nc2C)ncc1C(F)(F)F (stereo not shown) [Example 224, N4-methyl-N2-(3-methyl-1-(1-(pyridin-2-yl)ethyl)-1H-pyrazol-4-yl)-5-(trifluoromethyl) pyrimidine-2,4-diamine]
22 | 1.3 nM | CCNc1nc(Nc2cn(C)nc2C2CCC2)ncc1C(F)(F)F [Example 281, N2-(3-Cyclobutyl-1-methyl-1H-pyrazol-4-yl)-N4-ethyl-5-trifluoromethyl-pyrimidine-2,4-diamine]
23 | 21.7 nM | CCNc1nc(Nc2cn(C(C)(C)c3ccn(C)n3)nc2C)ncc1C(F)(F)F [Example 342, N4-ethyl-N2-(3-methyl-1-(2-(1-methyl-1H-pyrazol-3-yl)propan-2-yl)-1H-pyrazol-4-yl)-5-(trifluoromethyl) pyrimidine-2,4-diamine]
24 | 5.6 nM | CNc1nc(Nc2cnn(CC3(C)COC3)c2Cl)ncc1C(F)(F)F [Example 180, N2-(5-chloro-1-((3-methyloxetan-3-yl)methyl)-1H-pyrazol-4-yl)-N4-methyl-5-(trifluoromethyl) pyrimidine-2,4-diamine]
25 | 115 nM | CNc1nc(Nc2cn(C(C)(C)c3ccn(C)n3)nc2C)ncc1C(F)(F)F [Example 345, N4-methyl-N2-(3-methyl-1-(2-(1-methyl-1H-pyrazol-3-yl)propan-2-yl)-1H-pyrazol-4-yl)-5-(trifluoromethyl) pyrimidine-2,4-diamine]
26 | 1.8 nM | CNc1nc(Nc2cnn(C3CCN(C)CC3F)c2Cl)ncc1C(F)(F)F (stereo not shown) [Example 241, N2-(5-chloro-1-(3-fluoro-1-methylpiperidin-4-yl)-1H-pyrazol-4-yl)-N4-methyl-5-(trifluoromethyl) pyrimidine-2,4-diamine]
27 | 41 nM | CNc1nc(Nc2cn(C3CCN(C)CC3)nc2C)ncc1C(F)(F)F [Example 209, N4-methyl-N2-(3-methyl-1-(1-methylpiperidin-4-yl)-1H-pyrazol-4-yl)-5-(trifluoromethyl) pyrimidine-2,4-diamine]
28 | 4.8 nM | CCNc1nc(Nc2cn(-c3ccc(C#N)cc3)nc2C)ncc1C(F)(F)F [Example 265, 4-[4-(4-Ethylamino-5-trifluoromethyl-pyrimidin-2-ylamino)-3-methyl-pyrazol-1-yl]-benzonitrile]
